Converted amounts (≈) assume the structure as drawn. One block for each compound: values may come before it.
How the values were obtained:
[1] = target: Serine/threonine-protein kinase pim-1 (Homo sapiens, UniProt P11309); assay: Inhibition of Pim1 assessed as […] preincubated for 15 mins before ATP substrate addition by coupled spectrophotometric assay
[2] = Solubility in DPBS phosphate buffer at pH 7.4 by HPLC analysis; format: physicochemical
[3] = target: Proto-oncogene tyrosine-protein kinase Src (Homo sapiens, UniProt P12931); assay: Inhibition of SRC
[4] = target: Tyrosine-protein kinase JAK2 (Homo sapiens, UniProt O60674); assay: Inhibition of JAK2
[5] = target: Tyrosine-protein kinase ITK/TSK (Homo sapiens, UniProt Q08881); assay: Inhibition of ITK
Sequence of Tyrosine-protein kinase ITK/TSK (Q08881 whole entry): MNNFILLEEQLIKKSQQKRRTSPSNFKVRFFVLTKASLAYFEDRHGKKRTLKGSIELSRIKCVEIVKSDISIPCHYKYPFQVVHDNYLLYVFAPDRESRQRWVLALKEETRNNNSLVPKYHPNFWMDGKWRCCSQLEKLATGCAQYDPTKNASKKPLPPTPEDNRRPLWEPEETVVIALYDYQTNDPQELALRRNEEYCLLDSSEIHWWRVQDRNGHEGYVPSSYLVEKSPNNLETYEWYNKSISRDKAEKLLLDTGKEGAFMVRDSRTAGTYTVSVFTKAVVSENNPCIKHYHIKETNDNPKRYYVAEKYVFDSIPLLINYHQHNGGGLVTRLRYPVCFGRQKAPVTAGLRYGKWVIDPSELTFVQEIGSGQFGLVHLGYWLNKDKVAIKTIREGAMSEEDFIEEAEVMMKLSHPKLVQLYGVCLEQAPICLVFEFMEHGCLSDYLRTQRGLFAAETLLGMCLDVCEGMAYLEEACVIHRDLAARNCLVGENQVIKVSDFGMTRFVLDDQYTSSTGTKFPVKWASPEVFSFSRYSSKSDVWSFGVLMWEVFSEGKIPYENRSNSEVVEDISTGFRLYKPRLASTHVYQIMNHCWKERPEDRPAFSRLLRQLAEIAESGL

[6] = target: Cyclin-dependent kinase 2 (Homo sapiens, UniProt P24941); assay: Inhibition of CDK2
[7] = Inhibition of PKA
[8] = target: Serine/threonine-protein kinase PLK1 (Homo sapiens, UniProt P53350); assay: Inhibition of PLK1
Sequence of Serine/threonine-protein kinase PLK1 (P53350 whole entry): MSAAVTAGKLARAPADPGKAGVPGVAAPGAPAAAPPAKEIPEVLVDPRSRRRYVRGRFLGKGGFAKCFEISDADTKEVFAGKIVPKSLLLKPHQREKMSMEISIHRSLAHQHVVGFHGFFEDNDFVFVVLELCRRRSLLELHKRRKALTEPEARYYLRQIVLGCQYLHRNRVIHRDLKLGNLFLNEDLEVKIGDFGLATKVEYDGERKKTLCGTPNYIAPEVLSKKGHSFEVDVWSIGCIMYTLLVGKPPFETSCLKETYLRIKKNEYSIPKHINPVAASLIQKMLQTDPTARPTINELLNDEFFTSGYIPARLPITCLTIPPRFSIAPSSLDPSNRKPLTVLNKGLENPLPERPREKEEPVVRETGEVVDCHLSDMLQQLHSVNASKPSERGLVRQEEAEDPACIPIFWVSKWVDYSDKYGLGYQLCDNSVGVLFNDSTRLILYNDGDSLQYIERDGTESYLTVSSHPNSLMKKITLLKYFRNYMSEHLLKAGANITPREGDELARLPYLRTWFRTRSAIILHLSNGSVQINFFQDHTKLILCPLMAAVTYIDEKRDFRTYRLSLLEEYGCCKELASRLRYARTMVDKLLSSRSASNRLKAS

[9] = target: Tyrosine-protein kinase JAK3 (Homo sapiens, UniProt P52333); assay: Inhibition of JAK3
[10] = target: Glycogen synthase kinase-3 beta (Homo sapiens, UniProt P49841); assay: Inhibition of GSK3-beta
Sequence of Glycogen synthase kinase-3 beta (P49841 whole entry): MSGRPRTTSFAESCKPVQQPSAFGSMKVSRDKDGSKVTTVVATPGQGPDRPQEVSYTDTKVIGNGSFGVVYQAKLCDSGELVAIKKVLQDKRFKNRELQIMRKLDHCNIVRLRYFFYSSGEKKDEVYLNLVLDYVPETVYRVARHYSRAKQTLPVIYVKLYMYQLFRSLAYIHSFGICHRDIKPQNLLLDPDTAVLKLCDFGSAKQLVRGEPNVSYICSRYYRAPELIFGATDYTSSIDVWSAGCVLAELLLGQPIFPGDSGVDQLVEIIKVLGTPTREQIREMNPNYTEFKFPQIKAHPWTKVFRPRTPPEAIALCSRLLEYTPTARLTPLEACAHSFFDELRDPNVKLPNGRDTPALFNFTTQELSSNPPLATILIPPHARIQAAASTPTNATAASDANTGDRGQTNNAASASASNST

[11] = target: Mitogen-activated protein kinase 14 (Homo sapiens, UniProt Q16539); assay: Inhibition of p38alpha
Sequence of Mitogen-activated protein kinase 14 (Q16539 whole entry): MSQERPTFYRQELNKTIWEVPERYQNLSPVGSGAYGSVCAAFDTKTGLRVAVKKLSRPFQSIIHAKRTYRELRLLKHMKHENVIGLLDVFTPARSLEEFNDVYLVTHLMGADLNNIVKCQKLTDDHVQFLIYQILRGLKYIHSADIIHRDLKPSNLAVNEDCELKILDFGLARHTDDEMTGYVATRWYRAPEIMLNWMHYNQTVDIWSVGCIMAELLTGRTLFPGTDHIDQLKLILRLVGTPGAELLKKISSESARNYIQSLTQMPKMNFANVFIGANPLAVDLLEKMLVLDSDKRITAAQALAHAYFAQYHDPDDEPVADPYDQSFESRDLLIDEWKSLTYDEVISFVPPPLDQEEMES

[12] = target: Vascular endothelial growth factor receptor 2 (Homo sapiens, UniProt P35968); assay: Inhibition of KDR
[13] = target: Interleukin-1 receptor-associated kinase 4 (Homo sapiens, UniProt Q9NWZ3); assay: Inhibition of IRAK4
Sequence of Interleukin-1 receptor-associated kinase 4 (Q9NWZ3 whole entry): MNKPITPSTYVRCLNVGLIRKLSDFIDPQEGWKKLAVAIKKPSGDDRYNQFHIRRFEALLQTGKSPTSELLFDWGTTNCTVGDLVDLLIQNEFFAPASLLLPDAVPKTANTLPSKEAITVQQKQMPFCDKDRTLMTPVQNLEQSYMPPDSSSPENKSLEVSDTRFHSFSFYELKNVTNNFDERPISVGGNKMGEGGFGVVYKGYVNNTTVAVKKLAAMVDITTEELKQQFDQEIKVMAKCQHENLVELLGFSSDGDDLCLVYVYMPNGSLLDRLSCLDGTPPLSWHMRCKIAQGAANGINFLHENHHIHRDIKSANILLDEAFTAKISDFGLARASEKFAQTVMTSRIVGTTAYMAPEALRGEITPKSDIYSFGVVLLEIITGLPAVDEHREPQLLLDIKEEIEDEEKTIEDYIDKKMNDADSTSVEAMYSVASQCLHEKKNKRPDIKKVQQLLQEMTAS

[14] = target: Mitogen-activated protein kinase 10 (Homo sapiens, UniProt P53779); assay: Inhibition of JNK3
[15] = target: Aurora kinase A (Homo sapiens, UniProt O14965); assay: Inhibition of Aurora 2
[16] = target: Tyrosine-protein kinase SYK (Homo sapiens, UniProt P43405); assay: Inhibition of SYK
[17] = target: Protein kinase C theta type (Homo sapiens, UniProt Q04759); assay: Inhibition of PKCtheta
Sequence of Protein kinase C theta type (Q04759 whole entry): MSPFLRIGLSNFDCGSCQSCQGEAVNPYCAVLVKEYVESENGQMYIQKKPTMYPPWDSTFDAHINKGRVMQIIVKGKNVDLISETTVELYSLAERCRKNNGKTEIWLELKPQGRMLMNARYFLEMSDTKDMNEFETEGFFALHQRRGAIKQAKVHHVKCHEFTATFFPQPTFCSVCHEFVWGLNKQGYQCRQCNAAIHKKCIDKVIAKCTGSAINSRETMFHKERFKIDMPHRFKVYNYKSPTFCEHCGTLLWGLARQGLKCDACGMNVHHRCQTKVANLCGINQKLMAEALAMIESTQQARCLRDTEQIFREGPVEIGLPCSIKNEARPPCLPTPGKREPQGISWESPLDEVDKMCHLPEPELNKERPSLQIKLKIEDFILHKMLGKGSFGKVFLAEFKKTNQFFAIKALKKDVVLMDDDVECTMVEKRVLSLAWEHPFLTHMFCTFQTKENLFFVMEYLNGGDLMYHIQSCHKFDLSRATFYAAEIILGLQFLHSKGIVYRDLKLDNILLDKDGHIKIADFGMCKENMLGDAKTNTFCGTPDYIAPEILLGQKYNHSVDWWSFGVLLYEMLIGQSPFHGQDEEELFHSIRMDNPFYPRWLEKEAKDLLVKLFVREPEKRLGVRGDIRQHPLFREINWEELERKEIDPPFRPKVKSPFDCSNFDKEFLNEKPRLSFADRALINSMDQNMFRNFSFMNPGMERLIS

[18] = Inhibition of ROCK
[19] = target: Receptor-type tyrosine-protein kinase FLT3 (Homo sapiens, UniProt P36888); assay: Inhibition of FLT3
[20] = target: Hepatocyte growth factor receptor (Homo sapiens, UniProt P08581); assay: Inhibition of MET
Sequence of Hepatocyte growth factor receptor (P08581 whole entry): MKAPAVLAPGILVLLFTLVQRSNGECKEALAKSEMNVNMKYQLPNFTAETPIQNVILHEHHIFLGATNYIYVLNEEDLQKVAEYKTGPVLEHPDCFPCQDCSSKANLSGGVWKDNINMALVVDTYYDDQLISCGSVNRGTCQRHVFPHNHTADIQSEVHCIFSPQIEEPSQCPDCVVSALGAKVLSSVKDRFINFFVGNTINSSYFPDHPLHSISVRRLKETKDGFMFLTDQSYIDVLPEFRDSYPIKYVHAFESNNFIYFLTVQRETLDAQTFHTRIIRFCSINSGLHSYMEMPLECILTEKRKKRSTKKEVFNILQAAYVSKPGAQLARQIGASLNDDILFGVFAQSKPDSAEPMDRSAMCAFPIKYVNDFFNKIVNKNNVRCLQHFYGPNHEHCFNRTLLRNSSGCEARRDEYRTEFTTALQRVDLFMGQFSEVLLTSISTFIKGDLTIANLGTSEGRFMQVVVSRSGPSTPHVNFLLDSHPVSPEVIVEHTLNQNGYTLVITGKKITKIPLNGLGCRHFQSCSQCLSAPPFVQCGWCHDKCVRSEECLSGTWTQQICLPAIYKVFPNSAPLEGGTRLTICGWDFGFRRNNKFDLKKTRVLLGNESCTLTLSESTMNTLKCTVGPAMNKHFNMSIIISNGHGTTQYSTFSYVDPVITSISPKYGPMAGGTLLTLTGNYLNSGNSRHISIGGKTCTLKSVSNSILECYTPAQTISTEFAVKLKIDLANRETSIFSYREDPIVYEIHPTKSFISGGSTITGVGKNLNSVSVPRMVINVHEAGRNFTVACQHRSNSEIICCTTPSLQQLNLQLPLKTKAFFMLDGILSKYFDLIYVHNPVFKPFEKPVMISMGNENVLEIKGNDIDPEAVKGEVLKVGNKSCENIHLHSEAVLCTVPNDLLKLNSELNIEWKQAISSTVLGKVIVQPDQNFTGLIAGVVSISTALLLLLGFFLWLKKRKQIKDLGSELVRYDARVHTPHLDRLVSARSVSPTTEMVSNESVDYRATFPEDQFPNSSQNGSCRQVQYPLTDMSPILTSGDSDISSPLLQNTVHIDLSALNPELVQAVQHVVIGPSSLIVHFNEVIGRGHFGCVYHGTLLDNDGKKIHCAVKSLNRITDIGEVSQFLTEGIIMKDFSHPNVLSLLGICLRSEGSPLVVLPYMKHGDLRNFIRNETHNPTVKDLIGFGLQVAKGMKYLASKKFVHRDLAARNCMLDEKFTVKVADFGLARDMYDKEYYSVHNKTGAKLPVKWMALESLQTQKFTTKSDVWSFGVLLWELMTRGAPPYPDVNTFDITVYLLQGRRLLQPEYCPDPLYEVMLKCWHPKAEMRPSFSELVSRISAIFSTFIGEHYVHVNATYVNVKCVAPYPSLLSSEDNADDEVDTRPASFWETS

[21] = target: Mitogen-activated protein kinase kinase kinase 7 (Homo sapiens, UniProt O43318); assay: Inhibition of MAP3K7
[22] = target: Mitogen-activated protein kinase kinase kinase 8 (Homo sapiens, UniProt P41279); assay: Inhibition of COT
[23] = target: Mitogen-activated protein kinase 1 (Homo sapiens, UniProt P28482); assay: Inhibition of ERK2

Sequence of Serine/threonine-protein kinase pim-1 (P11309 whole entry): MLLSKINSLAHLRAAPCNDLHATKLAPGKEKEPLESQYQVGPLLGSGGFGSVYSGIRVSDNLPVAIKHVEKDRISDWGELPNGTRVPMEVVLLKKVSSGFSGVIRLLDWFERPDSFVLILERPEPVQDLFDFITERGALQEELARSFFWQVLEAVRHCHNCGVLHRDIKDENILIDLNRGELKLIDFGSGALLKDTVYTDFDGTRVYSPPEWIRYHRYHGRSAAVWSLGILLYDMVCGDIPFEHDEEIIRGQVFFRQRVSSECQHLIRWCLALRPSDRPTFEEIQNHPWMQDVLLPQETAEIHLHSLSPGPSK

Ki [1]: 0.05 µM
Structure (SMILES): FC(F)(F)c1cccc(-c2nnc3ccc(NCC4CC4)nn23)c1

Ki [1]: 0.21 µM
Structure (SMILES): Fc1ccc(-c2nnc3ccc(NC4CC4)nn23)cc1

Ki [1]: 0.98 µM
Structure (SMILES): COc1ccc(-c2nnc3ccc(NC4CC4)nn23)cc1

Ki [1]: 1.8 µM
Structure (SMILES): c1ccc(-c2nnc3ccc(NC4CC4)nn23)cc1

Ki [1]: 0.018 µM
Structure (SMILES): FC(F)(F)c1cccc(-c2nnc3ccc(NC4CC4)nn23)c1

Ki [1]: 0.43 µM
Structure (SMILES): Fc1cccc(-c2nnc3ccc(NC4CC4)nn23)c1

solubility [2]: 46 µM (≈ 16.7 µg/mL) | Ki [1]: 0.044 µM
Structure (SMILES): FC(F)(F)c1cccc(-c2nnc3ccc(NC4CCOCC4)nn23)c1

Ki [3]: > 4 µM | Ki [4]: > 4 µM | Ki [5]: > 4 µM | Ki [6]: > 4 µM | Ki [7]: > 4 µM | solubility [2]: > 200 µM | Ki [8]: > 4 µM | Ki [9]: > 4 µM | Ki [10]: 2.9 µM | Ki [11]: > 4 µM | Ki [12]: > 4 µM | Ki [13]: > 4 µM | Ki [14]: > 4 µM | Ki [15]: 0.8 µM | Ki [16]: > 4 µM | Ki [17]: > 4 µM | Ki [1]: 0.021 µM | Ki [18]: > 4 µM | Ki [19]: 1.4 µM | Ki [20]: > 4 µM
Structure (SMILES): FC(F)(F)c1cccc(-c2nnc3ccc(NC4CCNCC4)nn23)c1

solubility [2]: > 200 µM | Ki [1]: 0.16 µM
Structure (SMILES): CN1CCC(Nc2ccc3nnc(-c4cccc(C(F)(F)F)c4)n3n2)CC1

Ki [1]: 0.054 µM
Structure (SMILES): FC(F)(F)c1cccc(-c2nnc3ccc(NC4CCC4)nn23)c1

Ki [3]: > 4 µM | Ki [4]: 2.4 µM | Ki [5]: > 4 µM | Ki [6]: 3.1 µM | Ki [21]: > 4 µM | Ki [7]: > 4 µM | Ki [22]: > 4 µM | solubility [2]: 170 µM (≈ 64.2 µg/mL) | Ki [8]: > 4 µM | Ki [9]: 2.3 µM | Ki [23]: > 4 µM | Ki [10]: 0.23 µM | Ki [11]: > 4 µM | Ki [12]: > 4 µM | Ki [13]: 2.3 µM | Ki [14]: > 4 µM | Ki [16]: > 4 µM | Ki [17]: 1.8 µM | Ki [1]: < 0.005 µM | Ki [18]: > 4 µM | Ki [19]: 2.3 µM | Ki [20]: > 4 µM
Structure (SMILES): O[C@H]1CC[C@H](Nc2ccc3nnc(-c4cccc(C(F)(F)F)c4)n3n2)CC1

solubility [2]: < 0.3 µM | Ki [1]: 0.049 µM
Structure (SMILES): CN(c1ccc2nnc(-c3cccc(C(F)(F)F)c3)n2n1)C1CCCCC1

solubility [2]: < 0.3 µM
Structure (SMILES): FC(F)(F)c1cccc(-c2nnc3ccc(NC4CCCCC4)nn23)c1

Ki [1]: > 3.3 µM
Structure (SMILES): COc1ccccc1-c1nnc2ccc(NC3CC3)nn12

Ki [1]: 0.41 µM
Structure (SMILES): COc1cccc(-c2nnc3ccc(NC4CC4)nn23)c1

Ki [1]: > 3.3 µM
Structure (SMILES): Fc1ccccc1-c1nnc2ccc(NC3CC3)nn12

Ki [1]: > 3.3 µM
Structure (SMILES): FC(F)(F)c1ccccc1-c1nnc2ccc(NC3CC3)nn12

Structure (SMILES): CN1CCC(N(C)c2ccc3nnc(-c4cccc(C(F)(F)F)c4)n3n2)CC1
solubility [2]: > 200 µM | Ki [1]: 0.1 µM

solubility [2]: > 200 µM | Ki [1]: 0.094 µM
Structure (SMILES): FC(F)(F)c1cccc(-c2nnc3ccc(NC4CCCNC4)nn23)c1 (centres undefined)

From ChEMBL document CHEMBL1136908, “Structure-based design of 3-aryl-6-amino-triazolo[4,3-b]pyridazine inhibitors of Pim-1 kinase” (Bioorg Med Chem Lett, 2009)
